In brackets after ≈: the same amount, converted by molar mass. One block for each compound: values may come before it.
How the values were obtained:
[1] = biological target: EGFR (human) (UniProt P00533); details: a2780
[2] = biological target: EGFR (human) (UniProt P00533); details: sk-br-3
[3] = biological target: EGFR (human) (UniProt P00533); details: a2780ddp
[4] = biological target: EGFR (human) (UniProt P00533); details: a431
[5] = biological target: EGFR (human) (UniProt P00533); details: mda435
[6] = biological target: EGFR (UniProt P00533)
[7] = biological target: EGFR (human) (UniProt P00533); details: 3t3

Sequence of EGFR (human) (P00533 whole entry, looked up): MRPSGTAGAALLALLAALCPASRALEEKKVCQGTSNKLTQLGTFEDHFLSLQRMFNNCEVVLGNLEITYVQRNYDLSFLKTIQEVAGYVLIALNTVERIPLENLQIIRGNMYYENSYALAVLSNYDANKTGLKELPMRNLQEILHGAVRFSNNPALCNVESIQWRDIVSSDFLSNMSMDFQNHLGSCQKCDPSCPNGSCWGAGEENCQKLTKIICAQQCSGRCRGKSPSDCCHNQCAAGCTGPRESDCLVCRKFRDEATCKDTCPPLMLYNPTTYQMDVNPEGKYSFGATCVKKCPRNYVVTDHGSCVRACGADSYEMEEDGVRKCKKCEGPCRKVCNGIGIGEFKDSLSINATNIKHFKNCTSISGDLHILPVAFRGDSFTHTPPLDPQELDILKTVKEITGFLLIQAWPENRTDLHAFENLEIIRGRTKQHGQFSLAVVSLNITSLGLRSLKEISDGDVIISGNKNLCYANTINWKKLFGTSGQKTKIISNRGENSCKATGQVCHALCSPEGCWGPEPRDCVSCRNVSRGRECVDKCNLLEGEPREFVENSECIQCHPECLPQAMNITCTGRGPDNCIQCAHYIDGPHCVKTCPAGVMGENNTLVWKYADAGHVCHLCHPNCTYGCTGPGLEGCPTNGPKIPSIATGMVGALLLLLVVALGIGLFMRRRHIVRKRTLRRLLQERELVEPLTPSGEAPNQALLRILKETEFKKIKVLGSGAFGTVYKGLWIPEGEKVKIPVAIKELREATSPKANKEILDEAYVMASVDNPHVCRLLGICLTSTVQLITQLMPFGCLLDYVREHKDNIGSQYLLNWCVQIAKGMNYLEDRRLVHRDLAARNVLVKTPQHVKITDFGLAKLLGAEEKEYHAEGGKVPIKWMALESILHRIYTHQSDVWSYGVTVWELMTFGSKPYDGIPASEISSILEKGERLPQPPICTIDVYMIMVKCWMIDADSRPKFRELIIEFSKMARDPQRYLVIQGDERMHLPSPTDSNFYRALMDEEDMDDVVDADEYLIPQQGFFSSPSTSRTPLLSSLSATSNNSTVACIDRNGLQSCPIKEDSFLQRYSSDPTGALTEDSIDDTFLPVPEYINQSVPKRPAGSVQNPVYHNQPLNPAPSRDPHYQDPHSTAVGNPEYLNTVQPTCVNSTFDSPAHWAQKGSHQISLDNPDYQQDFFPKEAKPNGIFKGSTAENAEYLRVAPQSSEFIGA
Sequence of EGFR (P00533 whole entry, looked up): as above

SMILES: N#Cc1cnc2cnc(NCCN3CCOCC3)cc2c1Nc1cccc(Br)c1
IC50 [2]: 0.4 µg/mL (≈ 0.882 µM) | IC50 [3]: 0.8 µg/mL (≈ 1.76 µM)

SMILES: CN(C)C/C=C/C(=O)Nc1cnc2ncc(C#N)c(Nc3cccc(Br)c3)c2c1
IC50 [6]: 800 nM

SMILES: CCOc1ccc2ncc(C#N)c(Nc3cccc(Br)c3)c2n1
IC50 [6]: > 10000 nM

Further lines, results first:

IC50 [1]: 0.06 µg/mL (≈ 0.148 µM)
SMILES: CC#CC(=O)Nc1cc2c(Nc3cccc(Br)c3)c(C#N)cnc2cn1

IC50 [1]: 0.74 to 2.36 µg/mL (≈ 2.09 to 6.67 µM) | IC50 [4]: 0.209 to 0.31 µg/mL (≈ 0.59 to 0.875 µM) | IC50 [5]: 0.98 to 3.94 µg/mL (≈ 2.77 to 11.1 µM) | IC50 [3]: 0.43 to 2.25 µg/mL (≈ 1.21 to 6.34 µM)
SMILES: CNc1cc2c(Nc3cccc(Br)c3)c(C#N)cnc2cn1

IC50 [7]: 0.272 to 0.373 µg/mL (≈ 0.602 to 0.826 µM)
SMILES: CN(C)C/C=C/C(=O)Nc1cc2c(Nc3cccc(Br)c3)c(C#N)cnc2cn1

IC50 [6]: > 100 nM
SMILES: COc1ccc(CNc2cc3c(Nc4cccc(Br)c4)c(C#N)cnc3cn2)cc1
